Assay results from paper PMC5856591 (Cell chemical biology, 2018).

Tests used:
Sec14p of C. albicans = Sec14p of C. albicans (Candida albicans, UniProt P46250); assay: in vitro [3H]-PtdIns lipid transfer assay, C. albicans Sec14p; format: biochemical; settings: for inhibition of PtdIns-transfer by C. albicans protein (in words): tested concentration range
[1] = test system: cki1 and kes1 “bypass Sec14p” mutants; assay: spot growth assay of bypass Sec14p mutants; format: cell-based, Saccharomyces cerevisiae; settings: 20 μM on agar plates
[2] = test system: S. cerevisiae wildtype BY4743; assay: growth-inhibitory potency on wildtype S. cerevisiae; settings: Saccharomyces cerevisiae, read-out: IC50 [μM] S. cerevisiae wildtype, cell based growth assay, wildtype
[3] = kinetic aqueous solubility; format: physicochemical; settings: pH 7.4
S. cerevisiae BY4743Δ8 [4] = assay: growth assay, wildtype versus efflux-deficient wildtypeΔ8; format: cell-based, Saccharomyces cerevisiae; settings: ratio of growth IC50 wildtype to wildtypeΔ8
PITPα = target: T1, PITPα (Mus musculus, UniProt P53810); assay: in vitro [3H]-PtdIns lipid transfer assay, mammalian PITPα; settings: 20 μM
T1 sequence (P53810 1-271): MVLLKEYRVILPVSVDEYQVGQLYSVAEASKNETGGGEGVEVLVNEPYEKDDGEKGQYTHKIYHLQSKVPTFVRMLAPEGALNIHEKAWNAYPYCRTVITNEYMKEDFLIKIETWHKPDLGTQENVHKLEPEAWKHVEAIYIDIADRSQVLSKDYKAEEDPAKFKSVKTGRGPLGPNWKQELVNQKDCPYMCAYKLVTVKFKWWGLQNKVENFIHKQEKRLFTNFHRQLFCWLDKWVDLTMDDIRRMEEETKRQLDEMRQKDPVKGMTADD

Sec14p of C. glabrata = Sec14p of C. glabrata (Candida glabrata, UniProt P53989); assay: in vitro [3H]-PtdIns lipid transfer assay, C. glabrata Sec14p; format: biochemical
Sec14p = Sec14p (Saccharomyces cerevisiae, UniProt P24280); assay: in vitro [3H]-PtdIns lipid transfer assay, recombinant Sec14p; format: biochemical, S. cerevisiae; settings: for inhibition of Sec14p-mediated PtdIns-transfer (in words): 20 μM SMI end-point assay
[5] = test system: S. cerevisiae SEC14/sec14; assay: growth assay with heterozygous SEC14 deletion strain; format: cell-based, Saccharomyces cerevisiae; settings: for IC50: Saccharomyces cerevisiae, SEC14/SEC14, read-out: IC50 [μM] S. cerevisiae SEC14/sec14
HCT116 cells = assay: CellTiter-Glo luminescent cell viability assay; format: cell-based; settings: Homo sapiens, HCT-116, 72 h, read-out: IC50 [μM] HCT116
[6] = test system: mutant Sec14ps (Y151H, V154G, V155A, S173L, S201G); assay: [3H]-PtdIns transfer assay with recombinant mutant Sec14ps; format: biochemical, S. cerevisiae; settings: all mutant proteins but one
Sec14p^V155A = assay: [3H]-PtdIns transfer assay with recombinant Sec14p V155A; format: biochemical, S. cerevisiae
S. cerevisiae BY4743Δ8 [7] = assay: MIC on solid medium; format: cell-based, Saccharomyces cerevisiae; settings: 72 hours, 30°C

Sequence of Sec14p (P24280 whole entry): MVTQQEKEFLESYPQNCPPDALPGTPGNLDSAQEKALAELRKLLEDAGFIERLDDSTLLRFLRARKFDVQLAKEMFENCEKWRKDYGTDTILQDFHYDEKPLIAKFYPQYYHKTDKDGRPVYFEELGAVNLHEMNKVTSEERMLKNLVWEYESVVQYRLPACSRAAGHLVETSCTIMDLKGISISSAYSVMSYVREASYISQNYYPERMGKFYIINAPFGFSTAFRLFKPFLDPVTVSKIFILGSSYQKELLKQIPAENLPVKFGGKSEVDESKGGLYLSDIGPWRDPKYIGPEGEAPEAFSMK
Sequence of Sec14p of C. albicans (P46250 whole entry): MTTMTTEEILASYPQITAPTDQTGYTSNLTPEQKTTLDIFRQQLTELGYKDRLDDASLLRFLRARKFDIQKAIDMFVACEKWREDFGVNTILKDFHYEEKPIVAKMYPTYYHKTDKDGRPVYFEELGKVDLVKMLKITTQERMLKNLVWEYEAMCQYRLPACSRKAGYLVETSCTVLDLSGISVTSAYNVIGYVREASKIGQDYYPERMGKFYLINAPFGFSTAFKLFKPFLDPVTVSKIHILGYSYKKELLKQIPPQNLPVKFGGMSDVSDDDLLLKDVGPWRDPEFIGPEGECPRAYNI
Sequence of Sec14p of C. glabrata (P53989 whole entry): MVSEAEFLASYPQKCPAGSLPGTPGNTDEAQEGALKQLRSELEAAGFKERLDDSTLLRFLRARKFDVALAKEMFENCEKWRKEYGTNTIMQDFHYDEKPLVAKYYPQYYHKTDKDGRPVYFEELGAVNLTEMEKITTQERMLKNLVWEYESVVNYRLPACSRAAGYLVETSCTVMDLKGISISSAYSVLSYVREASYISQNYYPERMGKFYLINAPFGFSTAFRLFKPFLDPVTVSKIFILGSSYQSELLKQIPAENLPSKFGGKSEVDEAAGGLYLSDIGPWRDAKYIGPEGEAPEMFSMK

Compound | IC50 (Sec14p of C. albicans) [µM] | inhibition of PtdIns-transfer by C. albicans protein (in words) (Sec14p of C. albicans) | growth of bypass Sec14p mutants under compound challenge (in words) [1] | IC50 [2] [µM] | solubility in pure aqueous solutions (in words) [3] | fold IC50 shift S. cerevisiae wildtype/wildtypeΔ8 (S. cerevisiae BY4743Δ8 [4]) [x fold] | inhibition of PtdIns-transfer by mammalian PITPα (in words) (PITPα) | IC50 (Sec14p of C. glabrata) [µM] | IC50 (Sec14p) [µM] | inhibition of Sec14p-mediated PtdIns-transfer (in words) (Sec14p) | fitness of SEC14/sec14Δ heterozygote relative to isogenic wildtype (in words) [5] | IC50 [5] [µM] | IC50 (HCT116 cells) [µM] | sensitivity of mutant Sec14ps other than V155A (in words) [6] | increase in IC50 of Sec14p^V155A relative to wild-type Sec14p (Sec14p^V155A) [fold] | Minimal inhibitory concentration S. cerevisiae BY4743Δ8 (S. cerevisiae BY4743Δ8 [7]) [µM]
O=C(NCc1ccc2c(c1)OCO2)c1ncc(Br)cc1F [Compound 2] | > 100 | did not inhibit | indifferent to challenge | 28.5 | better solubility than compound 3 | 2.7 | no such inhibitory effects | 10.9 | 6.7 | clear inhibition | decreased fitness | 9.4 | > 100 |  |  | 
O=C(NCc1ccc2c(c1)OCO2)c1ccc(Br)cc1F [Compound 3] |  | did not inhibit | indifferent to challenge | 7 |  | 2.8 | no such inhibitory effects |  |  | clear inhibition | decreased fitness | 1.7 | > 100 | essentially indifferent | 17 | 
CC[C@@H]([C@H](C)O)n1ncn(-c2ccc(N3CCN(c4ccc(OC[C@@H]5CO[C@@](Cn6cncn6)(c6ccc(F)cc6F)C5)cc4)CC3)cc2)c1=O [Posaconazole] |  |  |  |  |  |  |  |  |  |  |  |  |  |  |  | <0.3
